For assay [1], the system named is CRBN E3 ligase. As to the kind of experiment: Ubiquitin biotinylation MS profiling of BET/PTK2 degraders in CRBN-BirA cells. It is filed as cell-based, human. To be noted: A3-HA-Ub, 1 μM, 1 hour, FIG. 10. The procedure:
(§1) Enrichment of biotinylated species by streptavidin-coated beads, protein digestion, and protein identification and quantification by mass spectrometry were performed exactly as described in Examples 3 and 4. Triplicate samples allowed for statistical analysis of differentially enriched proteins, represented by log 2-fold-change (FC) between the PROTAC®-treated group and the DMSO-treated group on the x-axis, and significance (p-value estimated by limma) on the y-axis in the figures.

In a further assay the test system is BET bromodomains. The conditions noted are these: degrader of BET bromodomains; cited from earlier work.
For assay [2], the target named is T1, BirA (Escherichia coli, UniProt P06709). The conditions noted are these: cited from earlier work.
Assay [3] concerns the target T2, VHL E3 ligase (UniProt P06709+P40337).
T2 construct: expressed in transfected cells
The experiment in a line: Ubiquitin biotinylation MS profiling of BET/PTK2 degraders in VHL-BirA cells. The conditions noted are these: A3-HA-Ub, 1 μM, 1 hour, FIG. 10. It is filed as cell-based, human. The procedure: as §1

The target in a further assay is T3, V5-IKZF1 (Homo sapiens, UniProt Q13422+Q96SW2).
T3 construct: expressed in transfected cells; host or cells: 293T CRBN-/- cells stably expressing CRBN-BirA; pRK5 vector, transient
The experiment in a line: Streptavidin pulldown and Western blot of biotinylated ubiquitinated V5-IKZF1 in 293T CRBN-/- CRBN-BirA cells. Format: cell-based. On the technique in general: A western blot detects proteins with antibodies after separation by electrophoresis.

The target of a further assay is PTK2 (Homo sapiens, UniProt Q05397). To be noted: cited from earlier work.
The subject of assay [4] is CRBN E3 ligase. The experiment in a line: Ubiquitin biotinylation MS profiling of multikinase PROTACs in HEK293T CRBN-/- CRBN-BirA cells. Format: cell-based, human. The conditions noted are these: A3-HA-Ub; PROTAC 1 μM, 45 minutes after carfilzomib; FIGS. 13A-13D. The text has this:
In this example, PROTAC® (proteolysis-targeting chimera) molecules that target kinases were created by linking certain kinase degraders with IMiDs analogs. (FIG. 12). PROTAC®s recruit a target protein to be in proximity to an E3 ubiquitin ligase to trigger protein degradation. The ubiquitinated targets of four CRBN-recruiting multi-kinase PROTAC®s were generated to contain the following multikinase degraders: SK-3-91, DB0646, SB1-G-187 and WH-10417-099. These four degraders can collectively induce degradation of a large number of distinct kinases (>125 distinct kinases). FIGS. 13A-13D show the results of a mass spectrometry experiment in which protein substrates susceptible to induced ubiquitination by the abovementioned four multikinase degraders were identified, respectively. These experiments were performed in HEK293T^CRBN−/− cells lentivirally engineered to express CRBN-BirA and transiently expressing A3-HA-Ub. While cultured in biotin-free medium, the cells were pre-treated with carfilzomib (carf; 0.4 μM) for 1 hour, and then were either treated or untreated with the kinase-targeting PROTAC®s (1 μM) for another 45 minutes. […] Enrichment of biotinylated species by streptavidin-coated beads, protein digestion, and protein identification and quantification by mass spectrometry were performed exactly as described in Example 3 and 4. Triplicate samples allowed for statistical analysis of differentially enriched proteins, represented by log 2-fold-change (FC) between the PROTAC®-treated group and the DMSO-treated group on the x-axis, and significance (p-value estimated by limma) on the y-axis in the figures. FIGS. 13A-13D present the induced ubiquitinated substrates for SK-3-91, DB0646, SB1-G-187 and WH-10417-099, respectively, shown and labeled in the upper right quadrant of the plot.

Assay [5] has as its target T2, VHL E3 ligase. As to the kind of experiment: Ubiquitin biotinylation MS with VHL inhibitor in A375 cells expressing VHL-BirA. It is filed as cell-based, human. To be noted: MLN4924 pre-treatment and washout, VH298 30 minutes, FIG. 18. The procedure:
Experiments were conducted using the methods and systems described herein in conjunction with an inhibitor of an E3 ligase utilized in the experiment. […] The experiments were performed in A375 cells that transiently expressed A3-HA-Ub and VHL-BirA. While cultured in biotin-free medium, the cells were pre-treated with MLN4924 (1 μM) for 2 hours. Thereafter, MLN4924 was washed out of the cell culture with one PBS wash and was replaced with biotin-free medium.
Next, the cells were lysed and kept on ice to terminate the reaction. Enrichment of biotinylated species by streptavidin-coated beads, protein digestion, and protein identification and quantification by mass spectrometry were performed exactly as described in Examples 3 and 4. The samples were analyzed in triplicate to allow for statistical analysis of differentially enriched proteins, represented by log 2-fold-change between the VH298-treated E3 ligase group and the wild-type E3 ligase group on the y-axis, and significance (p-value estimated by limma) on the x-axis in the figures. […] A decrease in biotinylation owing to the inhibitor treatment was observed. Consistent with the expected actions of VHL, HIF1A was identified as a substrate.

Assay [6] deals with T4, DCAF15 E3 ubiquitin ligase (UniProt P06709+Q14498+Q66K64).
T4 construct: expressed in transfected cells
The experiment in a line: Ubiquitin biotinylation MS profiling of molecular glue in HEK293T DCAF15-BirA cells. Format: cell-based, human. To be noted: A3-HA-Ub, 10 μM, 1 hour, FIG. 11. The procedure: The protocol used in this experiment is the same as that described in Example 6 above, except that the system was evaluated in a HEK293T cell line lentivirally engineered to express DCAF15-BirA and transiently expressing A3-HA-Ub. While cultured in biotin-free medium, the cells were pre-treated with carfilzomib (carf; 0.4 μM) for 1 hour, and then were either treated or untreated with E7820 (10 μM) for another hour. […] Enrichment of biotinylated species by streptavidin-coated beads, protein digestion, and protein identification and quantification by mass spectrometry were performed exactly as described in Examples 3 and 4. Triplicate samples allowed for statistical analysis of differentially enriched proteins, represented by log 2-fold-change (FC) between the E7820-treated group and the DMSO-treated group on the x-axis, and significance (p-value estimated by limma) on the y-axis in the figures. […] Consistent with the expected action of the E7820 glue in the system, the induced ubiquitinated protein RBM39/CAPERα was detected as the target of the E7820 sulfonamide, based on binding activity or protein degradation.

The subject of assay [7] is CRBN E3 ligase. As to the kind of experiment: Ubiquitin biotinylation MS profiling of HDAC degrader in 293T CRBN-/- CRBN-BirA cells. Format: cell-based, human. To be noted: CRBN-BirA, A3-HA-Ub; 1 μM, 45 minutes; FIG. 14A. On the procedure: as §1, with “The experiments involving CRBN E3 ligase were performed in HEK293T^CRBN−/− cells lentivirally engineered to express CRBN-BirA and transiently expressing A3-HA-Ub. The HDAC degrader XY-07-097 was used in the experiments using the CRBN E3 ligase. The experiments involving VHL E3 ligase were performed in HEK293T cells lentivirally engineered to express VHL-BirA and transiently expressing A3-HA-Ub. The HDAC degrader XY-07-187 was used in the experiments using the VHL E3 ligase. […] Enrichment” for “Enrichment”, “Example” for “Examples”
(§2) Desalted peptides were dried in a vacuum-centrifuged and reconstituted in 0.1% formic acid for LC-MS analysis. Data were collected using a TimsTOF Pro2 (Bruker Daltonics, Bremen, Germany) coupled to a nanoElute LC pump (Bruker Daltonics, Bremen, Germany) via a CaptiveSpray nano-electrospray source. […]

For another assay, the system named is GSPT1. As to the kind of experiment: GSPT1 degradation by Western blot in HEK293T cells and CRBN-/- derivatives. To be noted: carfilzomib 0.4 μM 1 hour before CC-885 1 μM. Format: cell-based, human. The procedure: However, instead of assessing transiently-expressed V5-tagged IKZF1, an endogenous neo-substrate of CRBN, namely, GSPT1, was assessed. […] Following incubation with the components and added agents, the cells were lysed, and streptavidin-coated beads were used to capture from the cell lysate biotinylated, ubiquitinated proteins, e.g., the endogenous GSPT1 substrate. The biotinylated proteins eluted from the beads were subjected to Western blot analyses.

In assay [8] the target is T2, VHL E3 ligase. As to the kind of experiment: Ubiquitin biotinylation MS profiling of HDAC degrader in 293T VHL-BirA cells. It is filed as cell-based, human. The conditions noted are these: A3-HA-Ub, 1 μM, 45 minutes, FIG. 14B. On the procedure:
as §1, with “The experiments involving CRBN E3 ligase were performed in HEK293T^CRBN−/− cells lentivirally engineered to express CRBN-BirA and transiently expressing A3-HA-Ub. The HDAC degrader XY-07-097 was used in the experiments using the CRBN E3 ligase. The experiments involving VHL E3 ligase were performed in HEK293T cells lentivirally engineered to express VHL-BirA and transiently expressing A3-HA-Ub. The HDAC degrader XY-07-187 was used in the experiments using the VHL E3 ligase. […] Enrichment” for “Enrichment”, “Example” for “Examples”
as §2

For assay [9], the target named is T1, BirA.

For orientation: IC50 means the concentration at which inhibition is half-maximal. The term Km denotes the concentration of substrate that gives half-maximal velocity.

T1 sequence (P06709 whole entry): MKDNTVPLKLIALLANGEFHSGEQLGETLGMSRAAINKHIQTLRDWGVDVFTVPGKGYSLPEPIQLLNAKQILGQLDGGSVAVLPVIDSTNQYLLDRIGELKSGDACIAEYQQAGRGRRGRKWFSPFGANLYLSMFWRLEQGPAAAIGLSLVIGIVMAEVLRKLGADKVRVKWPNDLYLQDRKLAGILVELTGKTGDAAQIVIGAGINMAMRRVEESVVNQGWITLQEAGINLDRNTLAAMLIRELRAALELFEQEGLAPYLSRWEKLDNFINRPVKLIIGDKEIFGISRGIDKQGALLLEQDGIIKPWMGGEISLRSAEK
T2 sequence (P40337+P06709 fused): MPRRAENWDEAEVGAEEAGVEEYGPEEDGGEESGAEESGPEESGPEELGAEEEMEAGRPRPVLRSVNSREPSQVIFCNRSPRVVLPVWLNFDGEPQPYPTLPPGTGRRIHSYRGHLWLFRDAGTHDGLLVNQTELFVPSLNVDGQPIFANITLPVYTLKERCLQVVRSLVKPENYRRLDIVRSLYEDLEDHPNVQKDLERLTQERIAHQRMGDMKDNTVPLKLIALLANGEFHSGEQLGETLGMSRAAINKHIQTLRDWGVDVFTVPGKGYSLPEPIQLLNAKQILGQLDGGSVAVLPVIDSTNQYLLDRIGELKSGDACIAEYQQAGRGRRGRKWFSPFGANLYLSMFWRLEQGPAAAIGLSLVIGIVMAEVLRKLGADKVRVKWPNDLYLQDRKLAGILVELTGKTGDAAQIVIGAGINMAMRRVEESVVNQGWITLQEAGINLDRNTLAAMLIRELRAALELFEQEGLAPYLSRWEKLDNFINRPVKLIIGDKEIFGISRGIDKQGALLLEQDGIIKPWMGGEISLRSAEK
T2 sequence (Q15369 whole entry, further chain): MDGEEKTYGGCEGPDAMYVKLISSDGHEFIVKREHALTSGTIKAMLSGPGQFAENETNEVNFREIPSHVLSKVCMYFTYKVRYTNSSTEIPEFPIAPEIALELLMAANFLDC
T2 sequence (Q15370 whole entry, further chain): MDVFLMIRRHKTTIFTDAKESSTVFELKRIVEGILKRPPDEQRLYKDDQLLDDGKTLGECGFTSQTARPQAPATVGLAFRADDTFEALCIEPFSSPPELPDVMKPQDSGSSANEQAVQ
T3 sequence (Q13422 whole entry): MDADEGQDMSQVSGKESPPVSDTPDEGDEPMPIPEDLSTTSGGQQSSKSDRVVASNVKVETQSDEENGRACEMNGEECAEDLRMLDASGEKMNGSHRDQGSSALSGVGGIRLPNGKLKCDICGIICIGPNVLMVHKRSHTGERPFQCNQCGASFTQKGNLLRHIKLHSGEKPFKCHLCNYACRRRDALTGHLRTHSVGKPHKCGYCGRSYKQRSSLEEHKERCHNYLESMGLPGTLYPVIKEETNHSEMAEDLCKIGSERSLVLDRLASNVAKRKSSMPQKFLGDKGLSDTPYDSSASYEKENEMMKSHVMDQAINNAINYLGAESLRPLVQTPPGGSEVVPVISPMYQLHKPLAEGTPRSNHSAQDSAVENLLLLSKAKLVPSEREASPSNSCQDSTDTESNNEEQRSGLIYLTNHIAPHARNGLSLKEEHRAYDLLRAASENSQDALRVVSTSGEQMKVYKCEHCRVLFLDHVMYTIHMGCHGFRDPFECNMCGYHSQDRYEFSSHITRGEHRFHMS
T3 sequence (Q96SW2 whole entry): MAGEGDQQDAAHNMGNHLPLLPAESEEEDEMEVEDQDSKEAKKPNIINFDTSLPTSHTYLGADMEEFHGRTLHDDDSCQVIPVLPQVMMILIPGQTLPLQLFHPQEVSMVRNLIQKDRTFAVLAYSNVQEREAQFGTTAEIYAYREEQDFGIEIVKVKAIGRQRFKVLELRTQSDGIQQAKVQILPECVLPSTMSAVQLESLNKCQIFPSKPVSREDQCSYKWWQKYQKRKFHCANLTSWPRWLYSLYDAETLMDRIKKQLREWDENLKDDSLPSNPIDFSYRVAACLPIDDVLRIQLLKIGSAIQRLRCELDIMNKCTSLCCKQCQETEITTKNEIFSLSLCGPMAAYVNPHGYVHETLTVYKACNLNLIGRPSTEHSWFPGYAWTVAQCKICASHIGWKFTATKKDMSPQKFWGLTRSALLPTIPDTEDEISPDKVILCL
Chain of PTK2 (Q05397 whole entry): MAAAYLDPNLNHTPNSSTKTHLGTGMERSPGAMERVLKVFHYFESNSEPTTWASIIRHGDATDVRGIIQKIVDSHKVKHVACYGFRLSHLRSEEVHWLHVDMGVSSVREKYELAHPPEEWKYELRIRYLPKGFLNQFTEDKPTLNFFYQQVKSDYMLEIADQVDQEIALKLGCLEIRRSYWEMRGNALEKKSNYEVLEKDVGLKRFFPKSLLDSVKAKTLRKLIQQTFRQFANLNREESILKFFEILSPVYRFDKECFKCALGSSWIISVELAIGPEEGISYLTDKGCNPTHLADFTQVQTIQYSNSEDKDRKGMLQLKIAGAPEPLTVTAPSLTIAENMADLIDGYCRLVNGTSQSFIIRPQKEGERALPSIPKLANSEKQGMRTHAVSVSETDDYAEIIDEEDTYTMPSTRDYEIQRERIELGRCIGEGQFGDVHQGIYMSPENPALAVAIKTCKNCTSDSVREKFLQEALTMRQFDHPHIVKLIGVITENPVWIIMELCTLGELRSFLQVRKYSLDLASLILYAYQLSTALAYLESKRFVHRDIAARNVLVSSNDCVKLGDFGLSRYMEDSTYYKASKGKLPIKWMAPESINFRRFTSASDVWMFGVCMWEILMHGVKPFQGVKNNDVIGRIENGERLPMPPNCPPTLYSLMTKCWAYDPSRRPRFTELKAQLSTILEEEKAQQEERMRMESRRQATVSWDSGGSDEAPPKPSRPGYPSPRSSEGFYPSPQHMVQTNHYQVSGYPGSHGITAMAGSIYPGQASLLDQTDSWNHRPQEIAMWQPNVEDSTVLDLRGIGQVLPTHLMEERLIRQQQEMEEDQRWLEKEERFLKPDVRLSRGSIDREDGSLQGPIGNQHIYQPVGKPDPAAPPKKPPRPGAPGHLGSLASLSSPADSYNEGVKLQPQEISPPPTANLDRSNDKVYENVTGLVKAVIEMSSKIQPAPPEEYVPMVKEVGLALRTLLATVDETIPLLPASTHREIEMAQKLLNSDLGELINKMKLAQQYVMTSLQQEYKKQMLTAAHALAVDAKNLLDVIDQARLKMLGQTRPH
Experimental for V5-IKZF1: One day (approximately 24 hours) after the transfection, DMSO (untreated) or carfilzomib (0.4 μM), (“carf”), was added to the cells for 1 hour.
A portion of the lysates (referred to as inputs) were saved for Western blotting analyses. […] The eluates were analyzed by SDS-PAGE gel electrophoresis and Western blotting analyses.
The preparation of cellular lysate was as described above for Cell Lysis, except that the RIPA buffer was supplemented with COMPLETE™ EDTA-free protease inhibitor cocktail (Roche; 04693159001; 1 tablet per 10 ml of buffer), benzonase (Millipore; E1014; 1 μl per 10 ml of buffer), 1.5 mM MgCl2, 1 mM EGTA, and 10 mM NEM (N-ethylmaleimide). For each sample, 1 ml of 3 mg/ml lysate was rotated overnight at 4° C. with 50 μl of resuspended streptavidin Sepharose beads (CYTIVA™; 17511301), which were pre-washed with RIPA lysis buffer 3 times. For all steps that required pelleting of beads, centrifugation was performed at 400×g for 1 minute. On the next day, streptavidin beads were pelleted, and the supernatant (a.k.a. flow-through) was either saved for analysis by Western blotting or was discarded. Streptavidin beads were then washed two times with 1 ml of 2% SDS wash buffer (2% SDS, 25 mM Tris-HCl, pH 7.5), and three times with 0.5-1 ml of 2M urea wash buffer (2M urea, 50 mM Tris-HCl, pH 8). Between each wash, the beads were rotated at room temperature for at least 5 minutes. During the last wash, the beads and the washing buffer were transferred to a new microfuge tube. […] For mass spectrometry-based analysis, the procedures described in On-bead Digestion below were used.
On the next day, the cells were transfected using pRK5-Avi-HA-ubiquitin or pRK5-A3-HA-ubiquitin in serum-free DMEM.

In the case of `Cc1sc2c(c1C)C(c1ccc(Cl)cc1)=N[C@@H](CC(=O)NCCCCCCCCNC(=O)COc1cccc3c1C(=O)N(C1CCC(=O)NC1=O)C3=O)c1nnc(C)n1-2` (some centres unmarked) [dBET6], the “Induced ubiquitinated substrates versus DMSO” value in the assay with CRBN E3 ligase [1] is “BRD2, BRD3, BRD4”. Also, in the assay with BET bromodomains, the IC50 was about 10 nM.
Consider GLNDIFEAQKIEWHE [Avi-Tag], for which the Km at BirA [2] was 25 µM.
Consider `Cc1ncsc1-c1ccc([C@H](C)NC(=O)[C@@H]2C[C@@H](O)CN2C(=O)[C@@H](NC(=O)COCCCOCCNC(=O)C[C@@H]2N=C(c3ccc(Cl)cc3)c3c(sc(C)c3C)-n3c(C)nnc32)C(C)(C)C)cc1` [ARV-771], for which, at VHL E3 ligase [3], the “Induced ubiquitinated substrates versus DMSO” value was “BRD2, BRD3, BRD4”.
Take `Nc1cccc2c1C(=O)N(C1CCC(=O)NC1=O)C2=O` (centres unmarked) [pomalidomide]: at V5-IKZF1, the “Induced ubiquitination of IKZF1 by E3 ligase CRBN” value is listed as “showed pomalidomide-induced ubiquitination of IKZF1”; the “Mono- and poly-ubiquitinated V5-IKZF1 captured by streptavidin beads” value was “increased amount”; the “Ubiquitinated V5-IKZF1 captured by streptavidin beads compared with DMSO” value is reported as “approximately 3.9 fold”.
Consider `COc1cc(C(=O)NCCOCCOCCOCCC(=O)Nc2cccc3c2C(=O)N(C2CCC(=O)NC2=O)C3=O)ccc1Nc1ncc(C(F)(F)F)c(Oc2cccc3c2C(=O)CC3)n1` (centres unmarked) [BI-3663], for which, in the assay on CRBN E3 ligase [1], the “Induced ubiquitinated substrates versus DMSO” value was “PTK2”. In addition, at PTK2, the IC50 was 18 nM.
As for `Cc1ccc(C(=O)Nc2ccc(CN3CCN(CCCOCCOCCOCCNC(=O)COc4cccc5c4C(=O)N(C4CCC(=O)NC4=O)C5=O)CC3)c(C(F)(F)F)c2)cc1C#Cc1cnc2cccnn12` (centres unmarked) [SB1-G-187], in the assay on CRBN E3 ligase [4], the “Induced ubiquitinated proteins versus DMSO” value is recorded as “the majority of the induced ubiquitinated proteins detected were kinase targets”.
`CC(C)S(=O)(=O)c1ccccc1Nc1nc(Nc2ccc(N3CCN(CCOCCNC(=O)CNc4cccc5c4C(=O)N(C4CCC(=O)NC4=O)C5=O)CC3)cc2)ncc1Cl` (centres unmarked) [SK-3-91]: the “Induced ubiquitinated proteins versus DMSO” value with CRBN E3 ligase [4] is recorded as “the majority of the induced ubiquitinated proteins detected were kinase targets”.
As to `COc1cc(C(=O)NCCOCCOCCOCC(=O)N[C@H](C(=O)N2C[C@H](O)C[C@H]2C(=O)NCc2ccc(-c3scnc3C)cc2)C(C)(C)C)ccc1Nc1ncc(C(F)(F)F)c(Oc2cccc3c2C(=O)CC3)n1` [BI-0319], the “Induced ubiquitinated substrates versus DMSO” value on VHL E3 ligase [3] was “PTK2”.
On to `Cc1ncsc1-c1ccc(CNC(=O)[C@@H]2C[C@@H](O)CN2C(=O)[C@@H](NC(=O)C2(C#N)CC2)C(C)(C)C)cc1` [VH298], for which the “VHL substrate revealed by decrease in biotinylation owing to the inhibitor treatment” value on VHL E3 ligase [5] is given as “HIF1A”.
For `Cc1ccc(NS(=O)(=O)c2cccc(C#N)c2)c2[nH]cc(C#N)c12` [E7820], the “Induced ubiquitinated substrate versus DMSO” value in [6] is listed as “RBM39/CAPERα”.
Consider `O=C(/C=C/c1ccc(CN(CCCCCNc2cccc3c2C(=O)N(C2CCC(=O)NC2=O)C3=O)CCc2c[nH]c3ccccc23)cc1)NO` (centres unmarked) [XY-07-097], for which the “Induced ubiquitinated HDAC substrates versus DMSO” value in the assay with CRBN E3 ligase [7] is “HDAC2, HDAC6, and HDAC8”.
Turning to `CC(C)C[C@H](NC(=O)[C@H](CCc1ccccc1)NC(=O)CN1CCOCC1)C(=O)N[C@@H](Cc1ccccc1)C(=O)N[C@@H](CC(C)C)C(=O)[C@@]1(C)CO1` [carfilzomib], the “Rescue of CC-885-induced GSPT1 degradation” value in the assay with GSPT1 is reported as “partially rescued”.
As for `Cc1ncsc1-c1ccc(CNC(=O)[C@@H]2C[C@@H](O)CN2C(=O)C(NC(=O)C2(F)CC2)C(C)(C)C)c(OCCCCCN(CCc2c[nH]c3ccccc23)Cc2ccc(/C=C/C(=O)NO)cc2)c1` (some centres unmarked) [XY-07-187], the “Induced ubiquitinated HDAC substrates versus DMSO” value on VHL E3 ligase [8] was “HDAC1, HDAC2, HDAC6, and HDAC8”.
GLNDIFEAQKIE [A3-Tag]: the “Increase in Km relative to Avi-Tag” value on BirA [9] is listed as about 14 fold. In addition, the Michaelis constant (Km) at BirA [2] was 345 µM.
Regarding `Cc1ccc(NC(=O)c2cccc(C(F)(F)F)c2)cc1N1Cc2cnc(Nc3ccc(N4CCN(Cc5cn(CCCCCOc6cccc7c6C(=O)N(C6CCC(=O)NC6=O)C7=O)nn5)CC4)nc3)nc2N(C)C1=O` (centres unmarked) [DB0646], in the assay with CRBN E3 ligase [4], the “Induced ubiquitinated proteins versus DMSO” value is on record as “the majority of the induced ubiquitinated proteins detected were kinase targets”.

Source of the values: patent publication US20250084453A1, “SYSTEMS, COMPOSITIONS AND METHODS FOR IDENTIFYING E3 LIGASE SUBSTRATES BY UBIQUITIN BIOTINYLATION” (The Broad Institute, Inc., priority 2022, published 2025).
